What was measured:
male dd-strain mice = assay: Test for acute toxicity (minimum lethal dose, 7-day mortality); type: in vivo; settings: mortality observed for 7 days; for Acute MLD ip: intraperitoneal
Protocol: Groups of 5 male dd-strain mice weighing 19 to 21 g were used. The present compounds were administered either orally (0.3 mg/g) or intraperitoneally (0.1 mg/g).
The MLD (minimum lethal dose) was determined by observing the mortality for 7 days after the administration.

Male Donryu-strain rats = assay: Test for antiulcer activity (restraint and water immersion stress ulcer, lesion index of glandular stomach); type: in vivo; settings: Rattus norvegicus, water immersion at 23±1° C. for 7 hours, read-out: Ulcer-inhibition Rate; for inhibition in vivo at 30 mg/kg: po: 30 mg/kg; for inhibition in vivo at 100 mg/kg: po: 100 mg/kg
Protocol: Test for antiulcer activity
Male Donryu-strain rats weighing 190 to 210 g were starved for 17 hours prior to the test.
Immediately, after an oral administration of the present compounds (30 mg/kg or 100 mg/kg), the rats were immobilized in the stress cage devised by Takagi et al. [Jap. J. Pharmacol., 18, 9 (1968)]. The cage was then immersed vertically in a water bath at 23±1° C. for 7 hours to the height of xiphoid process.
Each rat was then killed with carbon dioxide gas and its stomach was removed. The lengths of the lesions developed on the glandular stomach were summed to give a lesion index for each rat.
Four or five rats were used for each group. The test compounds were dissolved in saline or dissolved or suspended in saline with a suitable amount of polyethylene glycol-400 added or not added. The ulcer-inhibitionrate of each compound was calculated from the following formula by comparing the lesion index of the test group with that of the control group [administered with only the solvent (saline with polyethylene glycol-400 added or not added)]. [formula]

SMILES | Acute MLD ip (male dd-strain mice) [mg/kg] | Acute MLD po (male dd-strain mice) [mg/kg] | inhibition in vivo at 30 mg/kg (Male Donryu-strain rats) [%] | inhibition in vivo at 100 mg/kg (Male Donryu-strain rats) [%]
CCN(CC)CCNC1c2ccccc2OCc2ncccc21 (stereo not drawn) [Compound 1, 5-[2-(Diethylamino)ethyl]amino-5,11-dihydro[1]benzoxepino[3,4-b]pyridine] | > 100 | > 300 | 85 | 
CN(C)CCNC1c2ccccc2OCc2ncccc21 (stereo not drawn) [Compound 5, 5-[2-(Dimethylamino)ethyl]amino-5,11-dihydro[1]benzoxepino[3,4-b]pyridine] | > 100 | > 300 | 78 | 
CCN(CC)CCCNC1c2ccccc2OCc2ncccc21 (stereo not drawn) [Compound 7, 5-[3-(Diethylamino)propyl]amino-5,11-dihydro[1]benzoxepino[3,4-b]pyridine] | > 100 | > 300 | 55 | 
c1ccc2c(c1)OCc1ncccc1C2NCCN1CCCC1 (stereo not drawn) [Compound 13, 5-[2-(1-Pyrrolidinyl)ethyl]amino-5,11-dihydro[1]benzoxepino[3,4-b]pyridine] | > 100 | > 300 | 72 | 
c1ccc2c(c1)OCc1ncccc1C2NCCN1CCOCC1 (stereo not drawn) [Compound 15, 5-[2-(Morpholino)ethyl]amino-5,11-dihydro[1]benzoxepino[3,4-b]pyridine] | > 100 | > 300 | 73 | 
CN1CCN(C2c3ccccc3OCc3ncccc32)CC1 (stereo not drawn) [Compound 20, 5-[1-(4-Methyl)piperazinyl]-5,11-dihydro[1]benzoxepino[3,4-b]pyridine] | > 100 | > 300 | 67 | 
CC(C)N(CCNC1c2ccccc2OCc2ncccc21)C(C)C (stereo not drawn) [Compound 24, 5-[2-(Diisopropylamino)ethyl]amino-5,11-dihydro[1]benzoxepino[3,4-b]pyridine] | > 100 | > 300 | 88 | 
CC(C)N(CC(=O)NC1c2ccccc2OCc2ncccc21)C(C)C (stereo not drawn) [Compound 27, 5,11-Dihydro-5-[(N,N--diisopropylamino)acetyl]amino[1]benzoxepino[3,4-b]pyridine] | > 100 | > 300 |  | 79
CCN(CC)CC(=O)NC1c2ccccc2OCc2ncccc21 (stereo not drawn) [Compound 28, 5-[(N,N--diethylamino)acetyl]amino-5,11-dihydro[1]benzoxepino[3,4-b]pyridine] | > 100 | > 300 |  | 98
CN1CCN(CC(=O)NC2c3ccccc3OCc3ncccc32)CC1 (stereo not drawn) [Compound 29, 5,11-Dihydro-5-[(4-methyl-1-piperazinyl)acetyl]amino[1]benzoxepino[3,4-b]pyridine] | > 100 | > 300 |  | 64
CNC(=O)N(C)C1c2ccccc2OCc2ncccc21 (stereo not drawn) [Compound 31, 1-(5,11-Dihydro[1]benzoxepino[3,4-b]pyridin-5-yl)1,3-dimethylurea] | > 100 | > 300 |  | 93
CCNC(=O)N(CC)C1c2ccccc2OCc2ncccc21 (stereo not drawn) [Compound 36, 1-(5,11-Dihydro[1]benzoxepino[3,4-b]pyridin-5-yl)1,3-diethylurea] | > 100 | > 300 |  | 81

From patent US4547496A, “Antiulcer [1] benzepino[3,4-b]pyridine and compositions” (Kyowa Hakko Kogyo Co., Ltd., priority 1983, dated 1985)
